In patent publication US8343536B2, “Biofilm-inhibiting medical products” (Cook Biotech Incorporated, priority 2007, dated 2013):

Experiments:
Type in all cases: cell-based
[1] = system: E. coli (ATCC #25922); test: Zone-of-inhibition measured by image analysis, coated SIS discs (Example 2); conditions: 10 μg/cm^2 on SIS disc, 24 hours, n=3
Method: (§1) BisEDT (Molar ratio 1:1.5), BisBAL (1:1.5), and BisERY (1:1.5) (50 mg each) were obtained from Microbion, Inc. Small intestinal submucosa (SIS) was obtained and processed into 4-layer lyophilized sheets as described in Example 1. The sheets were subsequently cut into 15 mm discs (˜1.76 cm^2) using a disc punch. Bismuth thiols were resuspended in dimethyl sulfoxide (DMSO) and diluted to 0.35 μg/μl for coating. Discs were coated with the bismuth thiol solutions 50 μl of the appropriate solution per disc for a final concentration 10 μg/cm^2 (0.35 μg/μl*50 μl=17.5 μg/1.76 cm^2=10 μg/cm^2). The discs were subsequently placed in a lyophilizer overnight to remove the DMSO solvent. Control discs were prepared using 50 μl of DMSO without a bismuth thiol preparation. 3 bacteria were used for this experiment: S. aureus (ATCC #25983), P. aeruginosa (ATCC #27853), and E. coli (ATCC #25922). Bacteria was grown in Tryptic Soy Broth for 16-24 hours before placing a lawn on Tryptic Soy Agar in 100 mm Petri dishes.
(§2) Thirty samples were tested in total (3 bismuth thiol preparations @ n=3→9+1 control=10×3 bacteria=30). A lawn of one of the three bacteria investigated was swabbed onto the Tryptic Soy Agar. The bismuth thiol coated disc was rehydrated for ˜5 minutes in sterile saline and placed approximately in the center of the plate. Plates were incubated inverted for 24 hours at which time pictures were taken with a digital camera. Zones-of-inhibition were measured using image analysis software (Spot RT) by determining the distance of bacterial growth inhibition from the disc edge.

[2] = system: S. aureus (ATCC #25983); test: as above; conditions: 10 μg/cm^2 on SIS disc, 24 hours, n=3
Method: as §1, §2

[3] = system: A. niger(ATCC #16404); test: Anti-fungal zone-of-inhibition / growth inhibition, coated SIS discs (Example 5); conditions: 100 μg/cm^2 on SIS disc
Method: (§3) BisEDT was obtained from Microbion, Inc. as previously described. Small intestinal submucosa (SIS) was obtained and processed into 4-layer lyophilized sheets as described in Example 1. The sheets were subsequently cut into 15 mm discs (˜1.76 cm^2) using a disc punch. BisEDT was resuspended in dimethyl sulfoxide (DMSO) and diluted to appropriate concentrations for coating. Discs were coated with the BisEDT solution at a final concentration of 3.5 μg/μl using 50 μl of the solution per disc for a final concentration of 100 μg/cm^2. The discs were subsequently placed in a lyophilizer overnight to remove the DMSO solvent. A total of 6 coated discs were made—3 each for the two microorganisms investigated. These were compared against 3 uncoated controls discs cut from the same lot of SIS for each microorganism. C. albicans (ATCC #10231) and A. niger(ATCC #16404) were plated on Rose Bengal Chloramphenicol (RBC) in Petri dishes.
(§4) The experiment consisted of a total of […] (3 BisEDT 100 μg/cm^2 coated, 3 uncoated controls) for each fungus. A lawn of either C. albicans or A. niger was swabbed onto the RBC plates. Each disc was rehydrated in sterile saline for ˜5 minutes then placed approximately in the center of the plate. Plates were incubated inverted for ˜48 hours for C. albicans or 5 and 8 days for A. niger at which time pictures were taken with a digital camera. Zones-of-inhibition or growth inhibition was compared visually between groups.

[4] = system: C. albicans (ATCC #10231); test: as above; conditions: 100 μg/cm^2 on SIS disc, ~48 hours
Method: as §3, §4

## bismuth-1,2-ethanedithiol [BisEDT]
[1]
  Zone-of-inhibition, distance of bacterial growth inhibition from the disc edge: 1.28
[2]
  Zone-of-inhibition, distance of bacterial growth inhibition from the disc edge: 6.83
[3]; 5 days
  Mold growth on coated disc: able to grow up to the disc edge but not on the BisEDT coated disc
[3]; eight day time point
  Mold growth on coated disc: still unable to grow on the BisEDT coated discs
[4]
  Zone-of-inhibition from the disc edge: ~1 mm
